Tests used:
[1] = tested on: adult subjects with late-onset Pompe disease (LOPD); assay: Study ATB200-03 (PROPEL): PROMIS-Physical Function; format: in vivo, human; settings: for PROMIS-Physical Function Short Form 20a total score CHG, LS means (SE) / PROMIS-Physical Function Short Form 20a total score CHG, Difference of LS means (SE) (cipaglucosidase alfa/miglustat − alglucosidase alfa/placebo): Week 52; for CHG to Week 52 in PROMIS-Physical Function total score, LS Mean Treatment Difference: actual time point; for PROMIS physical function outcome: overall and ERT-experienced populations
Protocol: The test for the primary endpoint was conducted first at the 1-sided 0.025 significance level, and if significant, the ordered key secondary endpoints were similarly tested at the same significance level. The statistical significance of the key secondary endpoints was interpreted following a hierarchical testing order, each at the 1-sided alpha level of 0.025. […] Primary analyses of efficacy were performed using the mixed-effect model for repeated measures (MMRM) for 6MWD in Intent-to-treat Observed Population (ITT) that includes all available, observed data without any missing data imputation (ITT-OBS) and analysis of covariance (ANCOVA) for all other endpoints in the Intent-to-Treat-Last Observation Carried Forward (ITT-LOCF) Population. A nonparametric randomization based ANCOVA was specified as the first sensitivity analysis for 6MWD and FVC. […] For the purposes of data presentation in this document, 2-sided p-values are reported hereafter, except as otherwise noted.

[2] = tested on: adult subjects with LOPD; assay: Study ATB200-07 (OLE): sitting % predicted FVC; format: in vivo, human
Source text: The study doses and schedule are maintained from Study ATB200-03.
Efficacy data are presented in this summary as change from the baseline of Study ATB200-03 (OLE-ES Population).

[3] = tested on: adult subjects with late-onset Pompe disease (LOPD); assay: Study ATB200-03 (PROPEL): serum creatine kinase (CK); format: in vivo, human; settings: for CK reduction vs alglucosidase alfa: week 52
[4] = tested on: adult subjects with Pompe disease; assay: Pooled Studies ATB200-02/03/07 (Pool 2): 6MWD by exposure interval
Protocol: The pooled efficacy analyses presented within this section include the outlier (Pool 2). […] Pooled efficacy analyses excluding the outlier subject (Pool 2A) were also performed.
No long-term data for the alglucosidase alfa/placebo group are available, as all subjects switched to cipaglucosidase alfa/miglustat in Study ATB200-07.
Efficacy data from the 3 adult Pompe disease clinical studies were pooled and analyzed to further support the long-term efficacy of cipaglucosidase alfa/miglustat in adult subjects. Data from non-ambulatory subjects (Study ATB200-02 Cohort 2) were not included in the pool as there was little overlap of efficacy endpoints for this group with the various ambulatory groups, such as 6MWD and lower MMT.
The 3 adult Pompe disease clinical studies were pooled as follows: • The cipaglucosidase alfa/miglustat treatment group consists of: • All ambulatory subjects in Study ATB200-02 (Cohorts 1, 3, and 4), • All subjects randomized to the cipaglucosidase alfa/miglustat treatment group in Study ATB200-03, and • All subjects enrolled in Study ATB200-07. • The alglucosidase alfa/placebo treatment group consists of: • All subjects randomized to the ERT treatment group in Study ATB200-03.

[5] = Week 52-LOCF, ERT-experienced Population
[6] = Week 52-LOCF, ERT-naïve Subjects excluding Subject 4005-2511
[7] = Week 52-LOCF, ITT excluding Subject 4005-2511
[8] = exposure interval >15 to ≤24 months, Pool 2, including the outlier
[9] = exposure interval >24 months, Pool 2, including the outlier
[10] = exposure interval ≤15 months, Pool 2, including the outlier

For “ATB200/miglustat: two-component therapy: cipaglucosidase alfa (ATB200) administered in conjunction with miglustat (AT2221), a stabilizer of cipaglucosidase alfa”, the “CHG to Week 52 in PROMIS-Physical Function total score, LS Mean” value ([1]; MMRM, actual time point of assessments, ITT-OBS, ERT-experienced Subjects) was 2.0, the “PROMIS-Physical Function Short Form 20a total score Absolute Value, Mean (SD)” value [1, 5] was 66.19 (12.325) and the “PROMIS-Physical Function Short Form 20a total score Absolute Value, Median” value [1, 5] was 66.00. For the same substance, the “PROMIS-Physical Function Short Form 20a total score CHG, Mean (SD)” value [1, 5] was 1.76 (7.179), the “PROMIS-Physical Function Short Form 20a total score CHG, Median” value [1, 5] was 0.50 and the “PROMIS-Physical Function Short Form 20a total score Absolute Value, Mean” value [1, 6] was 77.15. For the same substance, the “PROMIS-Physical Function Short Form 20a total score Absolute Value, Median” value [1, 6] was 77.50, the “PROMIS-Physical Function Short Form 20a total score CHG (change from baseline), Mean” value [1, 6] was 2.50 and the “PROMIS-Physical Function Short Form 20a total score CHG (change from baseline), Median” value [1, 6] was 0.00. The “PROMIS-Physical Function Short Form 20a total score Absolute Value, Mean (SD)” value [1, 7] was 68.80 (12.954), the “PROMIS-Physical Function Short Form 20a total score Absolute Value, Median” value [1, 7] was 68.00 and the “PROMIS-Physical Function Short Form 20a total score CHG, Mean (SD)” value [1, 7] was 1.94 (7.498). For the same substance, the “PROMIS-Physical Function Short Form 20a total score CHG, Median” value [1, 7] was 0.00, the “PROMIS-Physical Function Short Form 20a total score CHG, LS means (SE)” value ([1]; ANCOVA, ITT-LOCF excluding Subject 4005-2511) was 1.98 (0.921) and the “PROMIS-Physical Function Short Form 20a total score CHG, Difference of LS means (SE) (cipaglucosidase alfa/miglustat − alglucosidase alfa/placebo)” value ([1]; ANCOVA, ITT-LOCF excluding Subject 4005-2511, 2-sided p 0.276) was 1.87 (1.706). For the same substance, the “PROMIS-Physical Function Short Form 20a total score CHG, LS means (SE)” value ([1]; ANCOVA, ITT-LOCF, ERT-experienced Population) was 1.90 (1.071), the “PROMIS-Physical Function Short Form 20a total score CHG, Difference of LS means (SE) (cipaglucosidase alfa/miglustat − alglucosidase alfa/placebo)” value ([1]; ANCOVA, ITT-LOCF, ERT-experienced Population, 2-sided p 0.110) was 3.14 (1.948) and the “LS Mean Treatment Difference (SE), CHG to Week 52 in PROMIS-Physical Function total score” value ([1]; cipaglucosidase alfa/miglustat − alglucosidase alfa/placebo, ITT-LOCF, ANCOVA, 2-sided p 0.426) was 1.37 (1.714). For the same substance, the “Change in PROMIS-Physical Function total score baseline to Week 52, Difference of LS means (SE) from ANCOVA” value ([1]; cipaglucosidase alfa/miglustat − alglucosidase alfa/placebo, ITT-LOCF, ERT-naïve Subjects excluding Subject 4005-2511) was −5.09 (4.288), the “CHG to Week 52 in PROMIS-Physical Function total score, LS Mean Treatment Difference” value ([1]; cipaglucosidase alfa/miglustat − alglucosidase alfa/placebo, MMRM, ITT-OBS excluding Subject 4005-2511 (overall)) was 2.5 and the “CHG to Week 52 in PROMIS-Physical Function total score, LS Mean Treatment Difference” value ([1]; cipaglucosidase alfa/miglustat − alglucosidase alfa/placebo, MMRM, ITT-OBS excluding Subject 4005-2511, ERT-naïve Subjects) was −3.1. For the same substance, the “CHG to Week 52 in PROMIS-Physical Function total score, LS Mean Treatment Difference” value ([1]; cipaglucosidase alfa/miglustat − alglucosidase alfa/placebo, MMRM, ITT-OBS, ERT-experienced Subjects) was 3.5, the “PROMIS physical function outcome” value [1] was “PROMIS physical function numerically favored ATB200/miglustat treatment” and the “PROMIS physical function outcome” value ([1]; listed as AT-GAA) was “improved numerically more than alglucosidase alfa treated patients”. The “mean (SD) change in PROMIS-Physical Function total score from baseline to Week 52” value ([1]; overall population) was 1.9 (7.50), the “sitting % predicted FVC course to Week 104” value ([2]; OLE-ES Population, continued cipaglucosidase alfa/miglustat) was “showed a slight decline from baseline through Study ATB200-03, then stabilized through Week 104” and the “Sitting FVC, mean BSL” value ([2]; Study ATB200-03 baseline, OLE-ES Population excluding Subject 4005-2511) was 70.7 % predicted. The “Sitting FVC, mean 52-wk CFB” value ([2]; change from ATB200-03 baseline at Week 52, OLE-ES excluding Subject 4005-2511) was −1.1 % predicted, the “Sitting FVC, mean 104-wk CFB” value ([2]; change from ATB200-03 baseline at Week 104, alglucosidase alfa/placebo group switched to cipaglucosidase alfa/miglustat at Week 52, OLE-ES excluding Subject 4005-2511) was −1.6 % predicted and the “mean change in CK after 52 weeks” value ([3]; combined study population) was −22.4%. For the same substance, the “CK reduction vs alglucosidase alfa” value [3] was “reductions in CK and urinary Hex4 were significantly greater with ATB200/miglustat treatment at week 52”, the “CK reduction vs alglucosidase alfa” value ([3]; listed as AT-GAA) was “significantly favored AT-GAA compared to alglucosidase alfa” and the “CK reduction vs alglucosidase alfa” value ([3]; listed as cipaglucosidase alfa/miglustat) was “reductions in biomarkers of muscle damage (CK) and disease substrate (Hex4) also were significantly greater with cipaglucosidase alfa/miglustat compared with alglucosidase alfa”. For the same substance, the “mean (SD) improvement in % predicted 6MWD” value ([4]; after at least 24 months (n=70)) was 3.3 (10.84), the “mean (SD) improvement in 6MWD” value ([4]; exposure >15 to ≤24 months (n=108)) was 17.7 (55.61) meters and the “mean (SD) improvement in 6MWD” value ([4]; exposure >24 months (n=70)) was 9.7 (67.13) meters. The “6MWD Baseline, Mean” value [4, 8] was 366.33 meters, the “6MWD Baseline, Median” value [4, 8] was 369.25 meters and the “6MWD change from baseline, mean” value [4, 8] was 17.67 meters. The “6MWD change from baseline, median” value [4, 8] was 11.75 meters, the “6MWD Baseline, Mean” value [4, 9] was 367.77 meters and the “6MWD Baseline, Median” value [4, 9] was 376.43 meters. For the same substance, the “6MWD change from baseline, mean” value [4, 9] was 9.67 meters, the “6MWD change from baseline, median” value [4, 9] was 5.23 meters and the “6MWD Baseline, Mean” value ([4]; exposure interval ≤15 months, Pool 2, Efficacy Population including the outlier) was 367.10 meters. For the same substance, the “6MWD Baseline, Median” value [4, 10] was 373.75 meters, the “6MWD change from baseline, median” value [4, 10] was 12.00 meters and the “6MWD change from baseline, mean” value ([4]; exposure interval ≤15 months, last available post-baseline value − baseline, Pool 2, including the outlier) was 17.13 meters. For the same substance, the “mean (SD) improvement in 6MWD” value ([4]; exposure ≤15 months (n=143)) was 17.1 (44.92) meters.
